In experiment [1] the test system is Mast/stem cell growth factor receptor Kit (Homo sapiens), P10721 [V559D]. Kind of experiment: Inhibition of KIT V559D mutant (unknown origin) assessed as residual activity at 1000 nM by KINOMEscan analysis relative to control.
Experiment [2] has as its target T1, Ephrin type-A receptor 6 (Homo sapiens) (UniProt Q9UF33).
T1 sequence (whole entry): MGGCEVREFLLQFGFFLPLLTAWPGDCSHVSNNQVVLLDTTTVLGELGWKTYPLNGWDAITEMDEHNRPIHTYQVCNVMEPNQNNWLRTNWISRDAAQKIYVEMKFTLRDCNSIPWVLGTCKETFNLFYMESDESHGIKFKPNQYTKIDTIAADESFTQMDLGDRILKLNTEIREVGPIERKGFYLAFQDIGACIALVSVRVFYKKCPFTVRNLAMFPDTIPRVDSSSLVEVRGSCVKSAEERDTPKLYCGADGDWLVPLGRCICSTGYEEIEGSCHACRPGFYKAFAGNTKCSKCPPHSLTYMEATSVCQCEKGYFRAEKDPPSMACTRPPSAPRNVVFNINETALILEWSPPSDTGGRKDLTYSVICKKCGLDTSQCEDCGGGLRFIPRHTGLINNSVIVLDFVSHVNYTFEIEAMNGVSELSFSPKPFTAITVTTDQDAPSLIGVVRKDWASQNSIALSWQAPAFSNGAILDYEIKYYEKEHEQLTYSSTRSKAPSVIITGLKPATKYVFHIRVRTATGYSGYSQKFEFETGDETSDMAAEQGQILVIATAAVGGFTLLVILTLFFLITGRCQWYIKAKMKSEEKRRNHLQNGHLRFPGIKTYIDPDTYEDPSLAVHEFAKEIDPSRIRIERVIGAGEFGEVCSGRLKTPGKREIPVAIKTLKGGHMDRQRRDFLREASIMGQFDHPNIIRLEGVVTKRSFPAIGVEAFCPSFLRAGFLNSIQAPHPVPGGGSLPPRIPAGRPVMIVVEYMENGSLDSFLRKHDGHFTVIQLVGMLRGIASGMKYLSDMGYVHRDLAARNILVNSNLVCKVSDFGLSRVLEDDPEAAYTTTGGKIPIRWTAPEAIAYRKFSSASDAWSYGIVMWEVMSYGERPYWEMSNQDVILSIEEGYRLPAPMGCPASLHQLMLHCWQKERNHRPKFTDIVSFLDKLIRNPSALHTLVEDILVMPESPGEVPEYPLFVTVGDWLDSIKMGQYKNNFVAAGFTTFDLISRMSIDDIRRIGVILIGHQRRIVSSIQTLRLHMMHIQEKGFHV
Put plainly: Inhibition of EPHA6 (unknown origin) assessed as residual activity at 1000 nM by KINOMEscan analysis relative to control.

Experiment [3] concerns the target Tyrosine-protein kinase Tec (Homo sapiens) (UniProt P42680). Put plainly: Inhibition of TEC (unknown origin) assessed as residual activity at 1000 nM by KINOMEscan analysis relative to control.
The target of experiment [4] is Phosphatidylinositol 4,5-bisphosphate 3-kinase catalytic subunit gamma isoform (Homo sapiens) (UniProt P48736). Kind of experiment: Inhibition of PIK3CG (unknown origin) assessed as residual activity at 1000 nM by KINOMEscan analysis relative to control.
Sequence of Phosphatidylinositol 4,5-bisphosphate 3-kinase catalytic subunit gamma isoform (Homo sapiens) (P48736 whole entry, looked up, canonical isoform): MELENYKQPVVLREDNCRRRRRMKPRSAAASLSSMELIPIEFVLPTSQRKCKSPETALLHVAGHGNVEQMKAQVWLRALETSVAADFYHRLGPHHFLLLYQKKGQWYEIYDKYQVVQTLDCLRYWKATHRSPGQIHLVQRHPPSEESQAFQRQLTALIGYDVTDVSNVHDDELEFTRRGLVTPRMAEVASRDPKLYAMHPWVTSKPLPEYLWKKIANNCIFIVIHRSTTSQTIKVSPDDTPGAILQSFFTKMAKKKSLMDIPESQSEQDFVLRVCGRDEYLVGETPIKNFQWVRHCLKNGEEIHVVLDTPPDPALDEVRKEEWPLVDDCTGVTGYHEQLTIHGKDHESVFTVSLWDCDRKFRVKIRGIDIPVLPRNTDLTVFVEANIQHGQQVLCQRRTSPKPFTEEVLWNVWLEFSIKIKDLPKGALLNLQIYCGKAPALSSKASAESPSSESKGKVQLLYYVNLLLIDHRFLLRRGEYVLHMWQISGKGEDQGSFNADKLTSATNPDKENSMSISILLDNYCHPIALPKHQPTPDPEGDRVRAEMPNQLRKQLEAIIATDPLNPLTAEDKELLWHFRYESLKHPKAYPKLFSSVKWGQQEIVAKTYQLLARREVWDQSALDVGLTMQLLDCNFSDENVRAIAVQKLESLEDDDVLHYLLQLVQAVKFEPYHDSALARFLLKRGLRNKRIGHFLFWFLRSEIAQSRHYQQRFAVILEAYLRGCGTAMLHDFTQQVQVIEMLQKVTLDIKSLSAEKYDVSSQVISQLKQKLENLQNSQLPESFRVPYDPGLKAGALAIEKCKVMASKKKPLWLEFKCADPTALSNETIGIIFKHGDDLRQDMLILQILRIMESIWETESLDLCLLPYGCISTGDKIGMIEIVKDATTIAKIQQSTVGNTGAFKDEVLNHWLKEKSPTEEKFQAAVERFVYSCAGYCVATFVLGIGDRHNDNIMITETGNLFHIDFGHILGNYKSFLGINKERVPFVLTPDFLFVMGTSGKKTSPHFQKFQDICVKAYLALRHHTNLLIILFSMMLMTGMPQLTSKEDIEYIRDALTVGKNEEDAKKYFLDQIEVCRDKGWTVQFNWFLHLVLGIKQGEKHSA
Experiment [5] deals with T2, Mitogen-activated protein kinase kinase kinase 15 (Homo sapiens) (UniProt Q6ZN16).
T2 sequence (whole entry): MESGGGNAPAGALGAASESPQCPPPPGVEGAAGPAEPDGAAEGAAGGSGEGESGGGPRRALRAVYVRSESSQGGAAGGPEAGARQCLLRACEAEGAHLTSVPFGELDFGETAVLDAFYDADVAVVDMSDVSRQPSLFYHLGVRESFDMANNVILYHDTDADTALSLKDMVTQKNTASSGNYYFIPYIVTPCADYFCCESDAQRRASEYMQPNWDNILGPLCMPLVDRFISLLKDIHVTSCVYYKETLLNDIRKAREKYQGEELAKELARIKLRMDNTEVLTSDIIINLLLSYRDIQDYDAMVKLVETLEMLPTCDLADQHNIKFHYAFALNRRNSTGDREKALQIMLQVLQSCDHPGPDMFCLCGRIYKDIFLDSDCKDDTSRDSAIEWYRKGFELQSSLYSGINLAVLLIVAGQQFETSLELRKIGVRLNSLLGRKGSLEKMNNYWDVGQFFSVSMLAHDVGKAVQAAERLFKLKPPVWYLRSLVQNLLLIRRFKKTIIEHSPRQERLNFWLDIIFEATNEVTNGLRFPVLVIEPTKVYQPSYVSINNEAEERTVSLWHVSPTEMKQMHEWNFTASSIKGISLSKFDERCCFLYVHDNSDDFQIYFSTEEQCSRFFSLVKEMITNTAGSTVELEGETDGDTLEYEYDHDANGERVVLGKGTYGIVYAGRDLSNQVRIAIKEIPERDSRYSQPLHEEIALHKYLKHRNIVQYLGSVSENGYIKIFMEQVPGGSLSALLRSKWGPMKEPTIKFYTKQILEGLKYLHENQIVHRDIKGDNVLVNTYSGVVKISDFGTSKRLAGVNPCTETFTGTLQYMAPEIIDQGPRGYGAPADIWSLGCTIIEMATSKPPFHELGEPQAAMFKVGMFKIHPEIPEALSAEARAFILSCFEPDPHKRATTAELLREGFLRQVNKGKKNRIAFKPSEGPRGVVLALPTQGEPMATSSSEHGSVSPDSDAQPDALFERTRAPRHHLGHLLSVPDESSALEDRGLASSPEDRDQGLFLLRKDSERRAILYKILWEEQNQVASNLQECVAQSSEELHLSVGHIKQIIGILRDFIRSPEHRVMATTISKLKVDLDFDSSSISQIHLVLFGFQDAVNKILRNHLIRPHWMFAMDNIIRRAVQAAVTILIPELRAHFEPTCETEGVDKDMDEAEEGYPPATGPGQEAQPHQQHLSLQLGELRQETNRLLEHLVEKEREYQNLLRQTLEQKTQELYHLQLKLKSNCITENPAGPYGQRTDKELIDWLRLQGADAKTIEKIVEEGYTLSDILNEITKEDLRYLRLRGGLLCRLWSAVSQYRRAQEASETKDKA
Kind of experiment: Inhibition of MAP3K15 (unknown origin) assessed as residual activity at 1000 nM by KINOMEscan analysis relative to control.

In experiment [6] the target is Casein kinase II subunit alpha' (Homo sapiens) (UniProt P19784). Kind of experiment: Inhibition of CSNK2A2 (unknown origin) assessed as residual activity at 1000 nM by KINOMEscan analysis relative to control.
Sequence of Casein kinase II subunit alpha' (Homo sapiens) (P19784 whole entry, looked up): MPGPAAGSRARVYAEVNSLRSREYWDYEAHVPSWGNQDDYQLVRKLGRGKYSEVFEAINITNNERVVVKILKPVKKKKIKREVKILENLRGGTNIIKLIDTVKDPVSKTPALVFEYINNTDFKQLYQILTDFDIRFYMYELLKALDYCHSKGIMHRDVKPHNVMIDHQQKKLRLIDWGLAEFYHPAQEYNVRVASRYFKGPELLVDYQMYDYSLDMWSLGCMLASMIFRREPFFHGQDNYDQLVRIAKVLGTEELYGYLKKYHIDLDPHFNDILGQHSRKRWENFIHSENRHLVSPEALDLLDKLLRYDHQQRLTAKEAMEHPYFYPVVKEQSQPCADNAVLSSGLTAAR

Structures are written as SMILES.

Sequence of Tyrosine-protein kinase Tec (Homo sapiens) (P42680 whole entry, looked up, canonical isoform): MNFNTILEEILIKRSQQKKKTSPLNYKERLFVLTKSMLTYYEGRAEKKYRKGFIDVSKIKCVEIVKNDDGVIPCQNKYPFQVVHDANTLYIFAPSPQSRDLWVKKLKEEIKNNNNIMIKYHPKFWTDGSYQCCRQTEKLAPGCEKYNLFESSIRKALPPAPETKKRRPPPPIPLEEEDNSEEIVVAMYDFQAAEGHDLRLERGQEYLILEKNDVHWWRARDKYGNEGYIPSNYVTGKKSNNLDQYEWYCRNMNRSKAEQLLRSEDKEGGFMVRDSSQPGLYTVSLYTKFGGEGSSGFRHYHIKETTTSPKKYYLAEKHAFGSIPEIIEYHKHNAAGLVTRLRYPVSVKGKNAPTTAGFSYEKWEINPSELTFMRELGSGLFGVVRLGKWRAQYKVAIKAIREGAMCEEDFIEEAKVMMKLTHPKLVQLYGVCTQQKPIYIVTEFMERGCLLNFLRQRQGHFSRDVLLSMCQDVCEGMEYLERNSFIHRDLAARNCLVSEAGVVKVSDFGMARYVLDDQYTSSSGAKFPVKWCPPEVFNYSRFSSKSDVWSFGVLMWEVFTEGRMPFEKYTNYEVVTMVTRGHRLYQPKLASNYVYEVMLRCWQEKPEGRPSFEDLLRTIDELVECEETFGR
Sequence of Mast/stem cell growth factor receptor Kit (Homo sapiens), P10721 [V559D] (P10721 whole entry V559D): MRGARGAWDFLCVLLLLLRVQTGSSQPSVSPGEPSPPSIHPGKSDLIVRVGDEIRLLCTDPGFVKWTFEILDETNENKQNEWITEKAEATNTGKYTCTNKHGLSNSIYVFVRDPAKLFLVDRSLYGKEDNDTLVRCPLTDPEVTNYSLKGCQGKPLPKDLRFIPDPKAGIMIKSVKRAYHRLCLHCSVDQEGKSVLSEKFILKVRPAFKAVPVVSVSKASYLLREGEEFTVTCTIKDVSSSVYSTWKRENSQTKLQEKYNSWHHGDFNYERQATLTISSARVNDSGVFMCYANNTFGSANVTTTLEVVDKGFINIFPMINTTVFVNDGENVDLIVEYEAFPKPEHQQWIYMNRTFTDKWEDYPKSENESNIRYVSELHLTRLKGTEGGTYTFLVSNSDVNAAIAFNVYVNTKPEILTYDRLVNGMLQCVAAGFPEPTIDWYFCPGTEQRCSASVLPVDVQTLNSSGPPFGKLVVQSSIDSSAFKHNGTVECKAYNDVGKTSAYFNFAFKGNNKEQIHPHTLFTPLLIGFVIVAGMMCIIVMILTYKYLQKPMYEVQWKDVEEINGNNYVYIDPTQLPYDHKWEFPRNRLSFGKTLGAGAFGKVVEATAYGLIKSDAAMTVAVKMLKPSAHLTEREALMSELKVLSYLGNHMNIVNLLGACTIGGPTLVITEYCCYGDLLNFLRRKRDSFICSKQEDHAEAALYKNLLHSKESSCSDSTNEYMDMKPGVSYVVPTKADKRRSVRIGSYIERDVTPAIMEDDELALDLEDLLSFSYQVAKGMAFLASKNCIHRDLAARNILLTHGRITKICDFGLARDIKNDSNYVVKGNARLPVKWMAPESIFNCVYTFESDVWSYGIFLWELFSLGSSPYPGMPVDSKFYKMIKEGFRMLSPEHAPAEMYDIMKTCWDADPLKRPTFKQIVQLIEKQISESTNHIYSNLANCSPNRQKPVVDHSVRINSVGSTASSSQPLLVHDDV

Regarding `COc1cc2ncnc(N[C@H](C)c3cccc4ccccc34)c2cc1OC`, the Activity amounted to 95% in experiment [1]; 88% in experiment [2]; 98% in experiment [3]; 83% in experiment [4]; 80% in experiment [5]; 90% in experiment [6].
Consider `COc1cc2nc(C)nc(N[C@H](C)c3cccc(-c4cn[nH]c4)c3)c2cc1OC`, for which the Activity worked out at 81% in experiment [1]; 96% in experiment [2]; 85% in experiment [3]; 97% in experiment [4]; 63% in experiment [5]; 100% in experiment [6].

Source of the values: ChEMBL document CHEMBL5678818, “Discovery of potent SOS1 inhibitors that block RAS activation via disruption of the RAS-SOS1 interaction” (Proc Natl Acad Sci U S A, 2019).
